Experiments:
[1] = molecular target: peripheral-type benzodiazepine receptor (PBR) (Homo sapiens, UniProt P30536); experiment: PBR binding assay, [3H]PK 11195 radio-assay (competition with radioactive standard ligand); details: for binding to PBR (in words): [3H]PK 11195 radio-assay
Method: Briefly, the assay utilizes radioactive standard ligand [^3H] PK 11195 (1-(2-chlorophenyl)-N-methyl-N-(1-methyl-propyl)-3-isoquinolinecarboxamide), and measures the ability of the compounds of the invention to compete with standard ligand in binding to PBR. Total radioactive binding was determined by measuring the radioactivity of the radioactive ligand-receptor complex, obtained in the reaction of radioactive standard with the PBR. Radioactive standard and the examined ligand were added to the PBR and after some incubation time the radioactivity of the resulting ligand-receptor complexes was measured with the help of […]. This radioactivity indicates the binding of the radioactive standard to PBR. […] For an easier interpretation of our results, the binding was expressed in percentage of radioactive ligand binding. The lower the number, the better the binding of the examined ligand to PBR. Western blot analysis can be used to see which components of the PBR-complex may be important for the efficacy of the new PBR ligands, according to methods described previously [Levin E et al. 2005; Kuznetsov V et al. 2005; Weisinger G et al. Biochemistiy 2004].

[2] = modulation of PBR composition, seizures; cited from earlier work
C6 glioma cell line [3] = experiment: Apoptotic levels in C6 glioma cell line (control and IBP knockdown); assay type: cell-based, rat; details: for increase of apoptotic levels: control cells; for apoptotic effects in IBP knockdown cell line: IBP knockdown cells, FGIN-1-27 10^-5M, ErPC 10^-4M
Excerpt: Cell death, including apoptosis. The Cell Death Detection ELISA^PLUS kit of Roche Molecular Biochemicals (Mannheim, Germany) was used to determine the effects on apoptosis by the new PBR ligands, in particular the one of the present description, according to methods described previously [Veenman L et al. 2005; Levin E et al. 2005]. Also, the Trypan blue method was applied in order to determine the cell viability after application of the new PBR ligands, according to methods described previously [Veenman L et al. 2005; Levin E et al. 2005]. Cell death including apoptosis of neural cells is induced by glutamate and Abeta, according to methods described previously [Michal Gaitner, M. Sc. thesis, 2004].

C6 glioma cell line [4] = experiment: Mitochondrial membrane potential decrease in C6 glioma cell line (control and IBP knockdown); assay type: cell-based, rat; details: 10^-4M
Method: Mitochondrial membrane potential and mitochondrial volume measurement. To see whether the new PBR ligand is able to prevent opening of the mitochondrial permeability transition pore to prevent apoptosis changes in the mitochondrial volume and potential are measured, as described previously [Maaser K, Br J Cancer 2001;85:1771-1780].

PBR-complex = PBR-complex (Homo sapiens, UniProt P30536); details: displacement of [3H]Ro5 4864; cited from earlier work
Sequence of PBR-complex (P30536 whole entry, one chain of several): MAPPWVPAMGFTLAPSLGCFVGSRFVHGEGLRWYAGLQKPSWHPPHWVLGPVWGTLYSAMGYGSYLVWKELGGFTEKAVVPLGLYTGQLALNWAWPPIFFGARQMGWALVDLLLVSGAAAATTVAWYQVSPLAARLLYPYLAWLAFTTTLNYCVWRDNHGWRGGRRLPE

Sequence of peripheral-type benzodiazepine receptor (PBR) (P30536 whole entry, species assumed): as the sequence (P30536 whole entry, one chain of several) above

With `CC(C)N(C(=O)Cc1nc(-c2ccccc2)nc2ccccc12)C(C)C` [Compound 12c, N,N-Diisopropyl-2-(2-phenyl-quinazolin-4-yl)-acetamide] the “binding to PBR (in words)” value [1] was “good binding properties”.

For `CCN(CC)C(=O)C(C)(C)c1nc2ccccc2nc1-c1ccccc1` [Compound 5, N,N-Diethyl-2-(3-phenyl-quinoxalin-2-yl)-isobutyramide], the “binding to PBR (in words)” value [1] was “best binding”.

For `CC(C)N(C(=O)n1c(-c2ccccc2)nc2ccccc2c1=O)C(C)C` [Compound 10b, 4-Oxo-2-phenyl-4H-quinazoline-3-carboxylic acid diisopropylamide], the “binding to PBR (in words)” value [1] was “good binding properties”.

In the case of `CCC(C)N(C)C(=O)c1cc2ccccc2c(-c2ccccc2Cl)n1` (centres unmarked) [PK 11195, 1-(2-chlorophenyl)-N-methyl-N-(1-methyl-propyl)-3-isoquinolinecarboxamide], the “effect on consequences of kainic acid injections” value [2] is listed as “prevented the effects of kainic acid injections”.

With `CCCCCCCC/C=C\CCCCCCCCCCCCOP(=O)([O-])OCC[N+](C)(C)C` [ErPC] the “increase of apoptotic levels” value (C6 glioma cell line [3]; 10^-4M) was 7-8 fold, the “apoptotic effects in IBP knockdown cell line” value (C6 glioma cell line [3]) was “completely abolished” and the “effects on mitochondrial potential in IBP knockdown cell line” value (C6 glioma cell line [4]; IBP knockdown cell line (as 3.7)) was “completely abolished”. For the same compound, the “enhancement of mitochondrial membrane potential decrease” value (C6 glioma cell line [4]; control cells vs vehicle treated control cells) was 6 fold.

With `CN(C)C(=O)Oc1nc(-c2ccccc2)nc2ccccc12` [Compound 9a, Dimethyl-carbamic acid 2-phenyl-quinazolin-4-yl ester] the “binding to PBR (in words)” value [1] was “good binding properties”.

For `CCN(CC)C(=O)Cc1nc(-c2ccccc2)nc2ccccc12` [Compound 12b, N,N-Diethyl-2-(2-phenyl-quinazolin-4-yl)-acetamide], the “radioactive standard remained bound to PBR (percentage of radioactive ligand binding)” value ([1]; [3H]PK 11195, the lower the number, the better the binding) was 14% and the “binding to PBR (in words)” value [1] was “good binding properties”.

For `CCCCCCN(CCCCCC)C(=O)Cc1c(-c2ccc(F)cc2)[nH]c2ccccc12` [FGIN-1-27], the “increase of apoptotic levels” value (C6 glioma cell line [3]; 10^-5M) is listed as 2 fold, the “apoptotic effects in IBP knockdown cell line” value (C6 glioma cell line [3]) is listed as “completely abolished” and the Ki (PBR-complex) is listed as 4.4 ± 0.1 nM.
